# Legend:
# HepG2 [1] = assay: Cox/SDH ratio assay in HepG2 cells; format: cell-based; conditions: Cellular assays (MP-Nuc); concentration giving Cox/SDH ratio <0.5, HepG2 cells
# PC-3 = assay: Cox/SDH ratio assay in PC-3 cells; format: cell-based; conditions: Cellular assays (MP-Nuc); concentration giving Cox/SDH ratio <0.5, PC-3 cells
# Chikungunya virus = assay: Activity on Chikungunya virus; format: cell-based; conditions: read-out: Activity on HRV strains and other viruses: Chikungunya virus
# K562 = assay: Cytotoxicity (CC50 assay) in K562; format: cell-based; conditions: N = 3; CC50, 72 hours, Cell-Titer Glo
# Description: (§1) Cytotoxicity (CC50 Assay) in HepG2 & K562 White TC grade Greiner 384-well assay plates were stamped with 0.5 ul of compound in 90% DMSO/10% water. HepG2 cells were trypsinized and collected into 50 ml falcon tube. K562 suspension cells were collected in 50 ml falcon tube. Both tubes containing cells were spun in benchtop centrifuge at 1200 rpm for 5 mins. The supernatant was discarded and the cell pellet was re-suspended in fresh culture media (HepG2: DMEM:F12 mix+10% FBS+1% Pen/Strep & K562: IMDM+10% FBS+1% Pen-Strep). Cells were counted using a hemocytometer and cells were diluted to a working suspension of 50,000 cells/ml for HepG2, and 20,000 cells/ml for K562. 50 ul of cells suspension was added to each well of 384-assay plate. Assay plates were incubated at 37° C., 5% CO2, 90% humidity incubator for 72 hours. Assay plates were then treated with 25 ul of Promega's Cell-Titer Glo® reagent, and incubated at room temperature for 10 mins. Plates were read on PolarStar-Omega using the Luminescence setting and a Gain of 3300.
# PC3 = PC3 cytotoxicity assay; format: cell-based; conditions: 3 or 5 days at 37° C., CellTiter-Glo
# Description: (§2) MT4 and PC3 Cytotoxicity Assay. Compounds were serially diluted in DMSO in half-logarithmic steps starting from 10 mM. 0.5 μL of serially diluted compound was transferred to the assay plates (Greiner cat#781080). Cells were added to the assay-ready compound plates in 50 μL of RPMI 1640 medium supplemented with 10% FBS (NCS Lot OS-161071), 1× penicillin/streptomycin solution (CellGro/Mediatech, Manassas, Va.; 30-002-CI), and incubated at 37° C. for 3 or 5 days. Control wells included DMSO alone (100% inhibition). Cell viability was determined using the CellTiter-Glo® Luminescent Cell Viability Assay (Promega, G7573) according to the manufacturer's protocol and a POLARstar Omega Luminometer (BMG Labtech).
# HRV14 = assay: HRV cytopathic effect (CPE) assay; format: cell-based; conditions: Human rhinovirus sp., H1-HeLa cells, 72 h at 33° C., CellTiter-Glo, read-out: Activity on HRV strains and other viruses: HRV14
# Description: (§3) HRV Cytopathic Effect (CPE) Assay.
# (§4) Compounds were serially diluted in DMSO in half-logarithmic steps starting from 5 mM. Of each dilution, 0.5 μL were transferred to the assay plates. H1-HeLa cells were added to the assay-ready compound plates in 45 μL DMEM supplemented with 0.1% BSA (Gibco, 15260), 1× penicillin/streptomycin solution (CellGro/Mediatech, Manassas, Va.; 30-002-CI), and 1× non-essential amino acids (CellGro; 25-025-CI) at 5000 cells/well into triplicate 384-well plates and incubated at 33° C. for 6 hours. Control wells included DMSO alone (100% inhibition) and DMSO plus virus (0% inhibition). After 6 h incubation at 33° C., 5 μL of human rhinovirus stock was added at an MOI that effectively kills 99% of cells within 72 hours. Plates were then incubated for 72 h at 33° C. Cell viability was determined using the CellTiter-Glo® Luminescent Cell Viability Assay (Promega, G7573) according to the manufacturer's protocol and a POLARstar Omega Luminometer (BMG Labtech).
# HRV86 = assay: HRV cytopathic effect (CPE) assay; format: cell-based; conditions: Human rhinovirus sp., H1-HeLa cells, 72 h at 33° C., CellTiter-Glo, read-out: Activity on HRV strains and other viruses: HRV86
# Description: as §3, §4
# HRV16 = assay: HRV cytopathic effect (CPE) assay; format: cell-based; conditions: Human rhinovirus sp., H1-HeLa cells, 72 h at 33° C., CellTiter-Glo, read-out: Activity on HRV strains and other viruses: HRV16
# Description: as §3, §4
# HRV39 = assay: HRV cytopathic effect (CPE) assay; format: cell-based; conditions: Human rhinovirus sp., H1-HeLa cells, 72 h at 33° C., CellTiter-Glo, read-out: Activity on HRV strains and other viruses: HRV39
# Description: as §3, §4
# HRV10 = assay: HRV cytopathic effect (CPE) assay; format: cell-based; conditions: Human rhinovirus sp., H1-HeLa cells, 72 h at 33° C., CellTiter-Glo, read-out: Activity on HRV strains and other viruses: HRV10
# Description: as §3, §4
# HRV29 = assay: HRV cytopathic effect (CPE) assay; format: cell-based; conditions: Human rhinovirus sp., H1-HeLa cells, 72 h at 33° C., CellTiter-Glo, read-out: Activity on HRV strains and other viruses: HRV29
# Description: as §3, §4
# Dengue virus (PBMCs) = assay: Activity on Dengue virus in PBMCs; format: cell-based; conditions: PBMC, read-out: Activity on HRV strains and other viruses: Dengue virus (PBMCs)
# HepG2 [2] = assay: Cytotoxicity (CC50 assay) in HepG2; format: cell-based; conditions: N = 7+; CC50, 72 hours, Cell-Titer Glo
# Description: as §1
# HRV15 (c-type) = assay: HRV replicon assay (Group C replicon); format: cell-based; conditions: Human rhinovirus sp., HRV15, H1-HeLa, read-out: Activity on HRV strains and other viruses: HRV15 (c-type)
# Description: This assay was based on the Group C replicon previously described (Mello et al, Antimicrobial Agents and Chemotherapy, 2014) with the modification that the P1 region was replaced with the cDNA encoding Nanoluciferase (Promega Corporation, Madiso, Wis.) Compounds were serially diluted in DMSO in half-logarithmic steps starting from 5 mM. Of each dilution, 0.5 μL were transferred to the assay plates. H1-HeLa cells were trypsinized, washed twice with ice-cold OptiMem® Gibco, 31985), resuspended at 1.5×10^7 cells/ml in OptiMem®, and stored on ice. A total of 6×10^6 cells were electroporated (270 V, 950 μF, ∞ resistance) with 25 ng of in vitro-transcribed RNA and allowed to rest on ice for 10 min. Electroporated cells were then diluted DMEM supplemented with 0.1% BSA (Gibco, 15260), 1× penicillin/streptomycin solution (CellGro/Mediatech, Manassas, Va.; 30-002-CI) to a final concentration 4×10^5 cells/ml. 50 μl of cells were then added to the compounds then incubated for […] at 33° C. Luciferase signal was then measured after 48 h using the NanoGlo® Detection Kit Assay (Promega, N1150) according to the manufacturer's protocol and a POLARstar Omega Luminometer (BMG Labtech).
# MT4 = MT4 cytotoxicity assay; format: cell-based; conditions: N = 2; 3 or 5 days at 37° C., CellTiter-Glo
# Description: as §2
# [3] = target: T1, Human Mitochondrial RNA polymerase (POLRMT) (Homo sapiens, UniProt O00411); assay: Human mitochondrial RNA polymerase single nucleotide incorporation assay; format: biochemical; conditions: 500 μM nucleoside triphosphate, 5 min at RT
# T1 construct: Purified full length POLRMT (Enzymax, USA); purchased Enzymax
# T1 sequence (O00411 42-1230): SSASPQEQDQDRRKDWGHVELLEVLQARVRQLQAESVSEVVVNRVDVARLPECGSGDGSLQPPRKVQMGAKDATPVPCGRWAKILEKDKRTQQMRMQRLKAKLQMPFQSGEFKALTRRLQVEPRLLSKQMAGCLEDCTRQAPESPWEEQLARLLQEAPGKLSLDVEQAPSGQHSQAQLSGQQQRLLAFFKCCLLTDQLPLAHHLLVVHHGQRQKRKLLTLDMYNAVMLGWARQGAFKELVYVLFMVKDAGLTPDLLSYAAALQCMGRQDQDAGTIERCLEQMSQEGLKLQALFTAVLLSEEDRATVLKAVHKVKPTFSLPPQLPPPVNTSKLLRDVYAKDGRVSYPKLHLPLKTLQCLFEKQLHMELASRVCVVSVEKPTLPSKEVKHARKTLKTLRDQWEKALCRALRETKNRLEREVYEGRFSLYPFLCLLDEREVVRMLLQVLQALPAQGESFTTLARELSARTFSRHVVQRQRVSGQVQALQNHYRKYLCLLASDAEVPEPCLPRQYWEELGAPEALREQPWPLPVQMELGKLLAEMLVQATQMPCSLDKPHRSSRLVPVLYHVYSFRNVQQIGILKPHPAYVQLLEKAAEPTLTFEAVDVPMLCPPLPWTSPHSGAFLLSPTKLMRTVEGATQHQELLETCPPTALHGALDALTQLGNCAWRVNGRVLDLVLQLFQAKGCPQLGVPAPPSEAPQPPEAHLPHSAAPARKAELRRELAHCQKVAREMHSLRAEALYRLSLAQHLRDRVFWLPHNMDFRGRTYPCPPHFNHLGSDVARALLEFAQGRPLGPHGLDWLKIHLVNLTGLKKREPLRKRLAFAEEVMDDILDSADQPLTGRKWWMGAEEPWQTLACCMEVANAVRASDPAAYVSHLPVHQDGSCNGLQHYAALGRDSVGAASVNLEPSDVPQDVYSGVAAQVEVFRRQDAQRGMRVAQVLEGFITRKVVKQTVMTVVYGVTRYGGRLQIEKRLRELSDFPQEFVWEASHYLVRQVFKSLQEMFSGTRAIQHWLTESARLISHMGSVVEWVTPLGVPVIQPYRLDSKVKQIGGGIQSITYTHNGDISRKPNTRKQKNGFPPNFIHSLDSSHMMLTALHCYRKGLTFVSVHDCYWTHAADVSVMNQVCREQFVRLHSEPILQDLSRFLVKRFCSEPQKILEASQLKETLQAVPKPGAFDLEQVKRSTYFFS
# Description: Human Mitochondrial RNA Polymerase Assay.
# Human mitochondrial RNA polymerase (POLRMT) single nucleotide Incorporation assay was adapted from Arnold et al. (Sensitivity of mitochondrial transcription and resistance of RNA polymerase II dependent nuclear transcription to antiviral ribonucleosides. PloS Pathogen 8(11):e1003030.). Briefly, elongation complexes were formed by incubating 500 nM POLRMT with 250 nM annealed DNA template/RNA primer duplex, in assay buffer (25 mM Tris-HCl, pH 8, 50 mM KCl, 10 mM MgCl2, 1 mM dithiothreitol, 0.2 U/μL RNasin) for 1.5 min at room temperature (RT), followed by rapid mixing with 500 μM nucleoside triphosphate substrate or inhibitor. Purified full length POLRMT (Enzymax, USA) was stored in 10 mM Tris-HCl (pH 8.0), 1 mM DTT, 100 mM NaCl and 20% glycerol. The volume of POLRMT added to any reaction was always less than or equal to one-tenth the total volume. Primer-template consisted of a 5′-FAM labeled […] RNA oligonucleotide primer SEQ. ID. NO. 2 (5′-UUUUGCCGCGCC-3′) annealed to the appropriate 18-mer DNA template to allow single addition of A, C, G or U ribonucleotide (Arnold et al. 2012). […] Electrophoresis was performed in 1×TBE buffer at 600 V. Gels were visualized with a Typhoon Imager under fluorescence detection mode and quantified with the Image Quant TL Software (GE Healthcare, Piscataway, N.J.). […]
smiles,measurement,setting,value
"[N-]=[N+]=N[C@]1(CO)O[C@@H](n2ccc(N)nc2=O)[C@H](O)[C@@H]1O [4′-Azido cytidine, 4′-azido-cytidine, reference compound]",HepG2 Cox/SDH ratio <0.5,HepG2 [1],200 µM
same,PC-3 Cox/SDH ratio <0.5,PC-3,25 µM
"CC#C[C@]1(O)[C@H](n2ccc3c(N)ncnc32)O[C@](F)(COP(=O)(OCOC(=O)OC(C)C)OCOC(=O)OC(C)C)[C@H]1O [Example 2, ((2S,3S,4R,5R)-5-(4-amino-7H-pyrrolo[2,3-d]pyrimidin-7-yl)-2-fluoro-3,4-dihydroxy-4-(prop-1-yn-1-yl)tetrahydrofuran-2-yl)methyl bis(((1-isopropoxycarbonyl)oxy)methyl) phosphate]",EC50,Chikungunya virus,1000 nM
same,Cytotoxicity Assay Results: K562,K562,>100 µM
same,Cytotoxicity Assay Results: PC3,PC3,>200 µM
same,EC50,HRV14,700 nM
same,EC50,HRV86,400 nM
same,EC50,HRV16,600 nM
same,EC50,HRV39,600 nM
same,EC50,HRV10,800 nM
same,EC50,HRV29,700 nM
same,EC50,Dengue virus (PBMCs),2050 nM
same,Cytotoxicity Assay Results: HepG2,HepG2 [2],>100 µM
same,EC50,HRV15 (c-type),700 nM
same,Cytotoxicity Assay Results: MT4,MT4,>100 µM
same,HepG2 Cox/SDH ratio <0.5,HepG2 [1],>200 µM
same,PC-3 Cox/SDH ratio <0.5,PC-3,>200 µM
CC#C[C@]1(O)[C@H](n2ccc3c(N)ncnc32)O[C@](F)(COP(=O)(O)OP(=O)(O)OP(=O)(O)O)[C@H]1O [Example 3],Human Mitochondrial RNA polymerase incorporation,[3],1.9% (Examples)
"C[C@@]1(F)[C@H](O)[C@@H](COP(=O)(O)OP(=O)(O)OP(=O)(O)O)O[C@H]1n1ccc(=O)[nH]c1=O [Sofosbuvir TP, reference compound]",Human Mitochondrial RNA polymerase incorporation,[3],1.9% (Sofosbuvir TP)

# From patent US9988416B2, “Alkynyl nucleoside analogs as inhibitors of human rhinovirus” (NOVARTIS AG, priority 2016, dated 2018)
